Test results from ChEMBL document CHEMBL3792365, “Dioxol and dihydrodioxin analogs of 2- and 3-phenylacetonitriles as potent anti-cancer agents with nanomolar activity against a variety of human cancer cells” (2016).

Columns and labels:
Type in all cases: functional
[1] = test system: ACHN; assay: Growth inhibition of human ACHN cells at 10 uM after 48 hrs by sulforhodamine B assay; settings: values are per cent of control
[2] = test system: HT-29; assay: Growth inhibition of human HT-29 cells at 10 uM after 48 hrs by sulforhodamine B assay; settings: HT-29, 48 h, values are per cent of control
[3] = test system: NCI-H322M; assay: Growth inhibition of human NCI-H322M cells at 10 uM after 48 hrs by sulforhodamine B assay; settings: values are per cent of control
[4] = Growth inhibition of human NCI-ADR-RES cells at 10 uM after 48 hrs by sulforhodamine B assay; settings: values are per cent of control
[5] = Growth inhibition of human Caki1 cells at 10 uM after 48 hrs by sulforhodamine B assay; settings: CAKI-1, 48 h, values are per cent of control
[6] = test system: A498; assay: Growth inhibition of human A498 cells at 10 uM after 48 hrs by sulforhodamine B assay; settings: A498, 48 h, values are per cent of control
[7] = Growth inhibition of human HOP62 cells at 10 uM after 48 hrs by sulforhodamine B assay; settings: HOP-62, 48 h, values are per cent of control
[8] = test system: NCI-H226; assay: Growth inhibition of human NCI-H226 cells at 10 uM after 48 hrs by sulforhodamine B assay; settings: NCI-H226, 48 h, values are per cent of control
[9] = Growth inhibition of human SNB75 cells at 10 uM after 48 hrs by sulforhodamine B assay; settings: SNB-75, 48 h, values are per cent of control
[10] = Growth inhibition of human COLO205 cells at 10 uM after 48 hrs by sulforhodamine B assay; settings: COLO 205, 48 h, values are per cent of control
[11] = test system: KM12; assay: Growth inhibition of human KM12 cells at 10 uM after 48 hrs by sulforhodamine B assay; settings: KM12, 48 h, values are per cent of control
[12] = Growth inhibition of human SNB19 cells at 10 uM after 48 hrs by sulforhodamine B assay; settings: SNB-19, 48 h, values are per cent of control
[13] = Growth inhibition of human SF539 cells at 10 uM after 48 hrs by sulforhodamine B assay; settings: SF-539, 48 h, values are per cent of control
[14] = test system: U-251; assay: Growth inhibition of human U251 cells at 10 uM after 48 hrs by sulforhodamine B assay; settings: U-251, 48 h, values are per cent of control
[15] = test system: SK-MEL-28; assay: Growth inhibition of human SK-MEL-28 cells at 10 uM after 48 hrs by sulforhodamine B assay; settings: SK-MEL-28, 48 h, values are per cent of control
[16] = test system: SK-MEL-2; assay: Growth inhibition of human SK-MEL-2 cells at 10 uM after 48 hrs by sulforhodamine B assay; settings: SK-MEL-2, 48 h, values are per cent of control
[17] = test system: MDA-MB-231; assay: Growth inhibition of human MDA-MB-231 cells at 10 uM after 48 hrs by sulforhodamine B assay; settings: MDA-MB-231, 48 h, values are per cent of control
[18] = test system: SK-MEL-5; assay: Growth inhibition of human SK-MEL-5 cells at 10 uM after 48 hrs by sulforhodamine B assay; settings: SK-MEL-5, 48 h, values are per cent of control
[19] = test system: MDA-MB-468; assay: Growth inhibition of human MDA-MB-468 cells at 10 uM after 48 hrs by sulforhodamine B assay; settings: MDA-MB-468, 48 h, values are per cent of control
[20] = Growth inhibition of human HCT116 cells at 10 uM after 48 hrs by sulforhodamine B assay; settings: HCT-116, 48 h, values are per cent of control
[21] = test system: A549; assay: Growth inhibition of human A549/ATCC cells at 10 uM after 48 hrs by sulforhodamine B assay; settings: A549, 48 h, values are per cent of control
[22] = Growth inhibition of human BT549 cells at 10 uM after 48 hrs by sulforhodamine B assay; settings: BT-549, 48 h, values are per cent of control
[23] = Growth inhibition of human OVCAR4 cells at 10 uM after 48 hrs by sulforhodamine B assay; settings: OVCAR-4, 48 h, values are per cent of control
[24] = Growth inhibition of human LOXIMVI cells at 10 uM after 48 hrs by sulforhodamine B assay; settings: LOX IMVI, values are per cent of control
[25] = Growth inhibition of human TK10 cells at 10 uM after 48 hrs by sulforhodamine B assay; settings: TK-10, 48 h, values are per cent of control
[26] = Growth inhibition of human UO31 cells at 10 uM after 48 hrs by sulforhodamine B assay; settings: UO-31, 48 h, values are per cent of control
[27] = test system: SN12C; assay: Growth inhibition of human SN12C cells at 10 uM after 48 hrs by sulforhodamine B assay; settings: values are per cent of control
[28] = Growth inhibition of human SF295 cells at 10 uM after 48 hrs by sulforhodamine B assay; settings: SF-295, 48 h, values are per cent of control
[29] = test system: NCI-H460; assay: Growth inhibition of human NCI-H460 cells at 10 uM after 48 hrs by sulforhodamine B assay; settings: NCI-H460, 48 h, values are per cent of control
[30] = test system: K562; assay: Growth inhibition of human K562 cells at 10 uM after 48 hrs by sulforhodamine B assay; settings: K562, 48 h, values are per cent of control
[31] = Growth inhibition of human SKOV3 cells at 10 uM after 48 hrs by sulforhodamine B assay; settings: SK-OV-3, 48 h, values are per cent of control
[32] = test system: 786-0; assay: Growth inhibition of human 786-0 cells at 10 uM after 48 hrs by sulforhodamine B assay; settings: 786-0, 48 h, values are per cent of control
[33] = Growth inhibition of human SF268 cells at 10 uM after 48 hrs by sulforhodamine B assay; settings: SF-268, 48 h, values are per cent of control
[34] = Growth inhibition of human DU145 cells at 10 uM after 48 hrs by sulforhodamine B assay; settings: DU-145, 48 h, values are per cent of control
[35] = Growth inhibition of human RXF393 cells at 10 uM after 48 hrs by sulforhodamine B assay; settings: RXF 393, 48 h, values are per cent of control
[36] = test system: MDA-MB-435; assay: Growth inhibition of human MDA-MB-435 cells at 10 uM after 48 hrs by sulforhodamine B assay; settings: MDA-MB-435, 48 h, values are per cent of control
[37] = Growth inhibition of human SW620 cells at 10 uM after 48 hrs by sulforhodamine B assay; settings: SW-620, 48 h, values are per cent of control
[38] = test system: M14; assay: Growth inhibition of human M14 cells at 10 uM after 48 hrs by sulforhodamine B assay; settings: M14, 48 h, values are per cent of control
[39] = Growth inhibition of human OVCAR8 cells at 10 uM after 48 hrs by sulforhodamine B assay; settings: OVCAR-8, 48 h, values are per cent of control
[40] = Growth inhibition of human OVCAR5 cells at 10 uM after 48 hrs by sulforhodamine B assay; settings: OVCAR-5, 48 h, values are per cent of control

| SMILES | growth, % of control at 10 µM [1] [%] | growth, % of control at 10 µM [2] [%] | growth, % of control at 10 µM [3] [%] | growth, % of control at 10 µM [4] [%] | growth, % of control at 10 µM [5] [%] | growth, % of control at 10 µM [6] [%] | growth, % of control at 10 µM [7] [%] | growth, % of control at 10 µM [8] [%] | growth, % of control at 10 µM [9] [%] | growth, % of control at 10 µM [10] [%] | growth, % of control at 10 µM [11] [%] | growth, % of control at 10 µM [12] [%] | growth, % of control at 10 µM [13] [%] | growth, % of control at 10 µM [14] [%] | growth, % of control at 10 µM [15] [%] | growth, % of control at 10 µM [16] [%] | growth, % of control at 10 µM [17] [%] | growth, % of control at 10 µM [18] [%] | growth, % of control at 10 µM [19] [%] | growth, % of control at 10 µM [20] [%] | also measured |
| --- | --- | --- | --- | --- | --- | --- | --- | --- | --- | --- | --- | --- | --- | --- | --- | --- | --- | --- | --- | --- | --- |
| N#C/C(=C\c1ccc(Cl)c(Cl)c1)c1ccc2c(c1)OCO2 | 49.1 | 102 | 74.1 | 79.3 | 87.4 | 94.3 | 88 | 98.9 | 20.3 | 93.2 | 91.7 | 105 | 86.9 | 86.3 | 105 | 89.7 | 80.5 | 98.4 | 101 | 70.1 | growth, % of control at 10 µM [21]: 70%; growth, % of control at 10 µM [22]: 94.1%; growth, % of control at 10 µM [23]: 26.1%; growth, % of control at 10 µM [24]: 62.7%; growth, % of control at 10 µM [25]: 90.2%; growth, % of control at 10 µM [26]: 73.7%; growth, % of control at 10 µM [27]: 93.5%; growth, % of control at 10 µM [28]: 77%; growth, % of control at 10 µM [29]: 84.7%; growth, % of control at 10 µM [30]: 94.8%; growth, % of control at 10 µM [31]: 70.6%; growth, % of control at 10 µM [32]: 72.4%; growth, % of control at 10 µM [33]: 80.9%; growth, % of control at 10 µM [34]: 94.1%; growth, % of control at 10 µM [35]: 94.4%; growth, % of control at 10 µM [36]: 93.7%; growth, % of control at 10 µM [37]: 89.8%; growth, % of control at 10 µM [38]: 96.5%; growth, % of control at 10 µM [39]: 70.9%; growth, % of control at 10 µM [40]: 99.3% |
| N#C/C(=C\c1cccc2ccccc12)c1ccc2c(c1)OCO2 | 79.3 | 23.5 | 90.5 | 36.5 | 61.2 | 35.7 | 75.9 | 83 | 61.6 | 56 | 39.2 | 82.1 | 67.9 | 47.3 | 64.6 | 59.8 | 48.3 | 66.2 | 25.9 | 32.7 | growth, % of control at 10 µM [21]: 55.9%; growth, % of control at 10 µM [22]: 51.8%; growth, % of control at 10 µM [23]: 68.9%; growth, % of control at 10 µM [24]: 65.2%; growth, % of control at 10 µM [25]: 78.2%; growth, % of control at 10 µM [26]: 80.3%; growth, % of control at 10 µM [27]: 75.9%; growth, % of control at 10 µM [28]: 68.2%; growth, % of control at 10 µM [29]: 77.8%; growth, % of control at 10 µM [30]: 21.7%; growth, % of control at 10 µM [31]: 61.9%; growth, % of control at 10 µM [32]: 77.1%; growth, % of control at 10 µM [33]: 71%; growth, % of control at 10 µM [34]: 77.7%; growth, % of control at 10 µM [35]: 64.3%; growth, % of control at 10 µM [36]: -28.5%; growth, % of control at 10 µM [37]: 35.2%; growth, % of control at 10 µM [38]: 37.9%; growth, % of control at 10 µM [39]: 99%; growth, % of control at 10 µM [40]: 98.2% |
| N#C/C(=C\c1ccc(Cl)cc1Cl)c1ccc2c(c1)OCO2 | 102 | 89.7 | 86.4 | 100 | 86.9 | 101 | 88 | 113 | 76.2 | 99 | 76 | 99.8 | 93.8 | 91.1 | 98.3 | 98.9 | 119 | 98.9 | 82.1 | 99.5 | growth, % of control at 10 µM [21]: 92.3%; growth, % of control at 10 µM [22]: 86.4%; growth, % of control at 10 µM [23]: 88.7%; growth, % of control at 10 µM [24]: 103%; growth, % of control at 10 µM [25]: 90.7%; growth, % of control at 10 µM [26]: 75.1%; growth, % of control at 10 µM [27]: 102%; growth, % of control at 10 µM [28]: 97.5%; growth, % of control at 10 µM [29]: 103%; growth, % of control at 10 µM [30]: 76.2%; growth, % of control at 10 µM [31]: 97.3%; growth, % of control at 10 µM [32]: 91.4%; growth, % of control at 10 µM [33]: 94.4%; growth, % of control at 10 µM [34]: 99.3%; growth, % of control at 10 µM [35]: 101%; growth, % of control at 10 µM [36]: 50.7%; growth, % of control at 10 µM [37]: 106%; growth, % of control at 10 µM [38]: 88.7%; growth, % of control at 10 µM [39]: 104%; growth, % of control at 10 µM [40]: 106% |
